Data on one compound can be found in patent US20240327791A1, “METHODS OF T CELL PRODUCTION” (Adaptimmune Limited, priority 2021, published 2024).

SMILES strings stand for the structures. “Also recorded” adds a separate entry of the source.

Common to all, as to format: cell-based
In data set [1] the test system is haematopoietic progenitor cells (iPSC derived CD34+ cells). As to the kind of experiment: Viability and proliferation of HPCs / iPro T cells cultured with pyrimidoindole compound (cell counts, NC-250). To be noted: for viability of cells: UM729 0.25 μM to 1.0 μM (up to 1 μM). The method, then: iPSC cells (HCP1324_c1A12) were differentiated to day 16, using our in-house Proprietary media. HPC (CD34+ cells) were isolated using MACS and a cryopreserved bank of these cells was created for further differentiation into iT-Cells. HPC were then thawed and seeded at 5000 cells per cm^2 in 1 ml of lymphoid progenitor (stage 4; LP) media on the standard SCT's coating (2.5 μL/cm^2). UM729 was added to the culture media in a range of concentrations from 0.25 μM-5 μM. On day 3, 1 mL of LP media with the required concentration of UM729 was added and further demi-media changes were carried out every 3 days, with the required media concentration. Every 14 days cells were removed from culture and counted using NC-250. The cells were then replated on to fresh SCT matrix and UM729 was added to the media at the relevant concentration. Cells were removed from the cultures after 21, 35 and 42 days and phenotyped using the panel in Table 1. At these timepoints cells were either continued on in lymphoid progenitor media with the relevant UM729 concentrations or transferred into T cell maturation conditions. On day 21, 35 and 42 of culture iPro T Cells were seeded onto fresh SCT matrix (2.5 μl/cm^2) at a density of 250,000 cells per cm^2. Cells were cultured in T-Cell maturation media either with or without UM729 (0.25-5 μM), with demi-media changes every 3 days for 2 weeks. After 2 weeks of maturation the cells were counted using the NC-250 and phenotyped by flow cytometry using the panel in Table 1.

Data set [2] shares this test system. The data set is described as follows: Flow cytometry phenotyping of HPCs differentiated in lymphoid progenitor (stage 4) medium with pyrimidoindole compound. The procedure: (§1) HPC were then thawed and seeded at 5000 cells per cm^2 in 1 ml of lymphoid progenitor (stage 4; LP) media on the standard SCT's coating (2.5 μL/cm^2). UM729 was added to the culture media in a range of concentrations from 0.25 μM-5 μM. On day 3, 1 mL of LP media with the required concentration of UM729 was added and further demi-media changes were carried out every 3 days, with the required media concentration. Every 14 days cells were removed from culture and counted using NC-250. The cells were then replated on to fresh SCT matrix and UM729 was added to the media at the relevant concentration. Cells were removed from the cultures after 21, 35 and 42 days and phenotyped using the panel in Table 1. At these timepoints cells were either continued on in lymphoid progenitor media with the relevant UM729 concentrations or transferred into T cell maturation conditions. On the day of the assay, the cells were counted, washed twice in FACS Buffer and phenotyped by flow cytometry for T-cell markers.

For data set [3], the system named is iPro T cells. The data set is described as follows: T cell maturation in stage 5 medium after stage 4 pre-treatment, flow cytometry. The settings on record: pre-treated with UM729 21 days in stage 4 medium, then 14 days stage 5 medium without UM729. The method, then:
On day 21, 35 and 42 of culture iPro T Cells were seeded onto fresh SCT matrix (2.5 μl/cm^2) at a density of 250,000 cells per cm^2. Cells were cultured in T-Cell maturation media either with or without UM729 (0.25-5 μM), with demi-media changes every 3 days for 2 weeks. After 2 weeks of maturation the cells were counted using the NC-250 and phenotyped by flow cytometry using the panel in Table 1. On the day of the assay, the cells were counted, washed twice in FACS Buffer and phenotyped by flow cytometry for T-cell markers.
In general terms: In flow cytometry, cells or beads pass a laser one at a time.

Data set [4] concerns iPro T cells. The data set is described as follows: Expansion of iPro T cells in stage 4 medium. The settings on record: UM729 0.25 μM to 1.0 μM in stage 4 medium, up to 42 days. The method, then:
as §1, with “conditions.” for “conditions. On the day of the assay, the cells were counted, washed twice in FACS Buffer and phenotyped by flow cytometry for T-cell markers.”

Data set [5] relates to iPro T cells. The data set is described as follows: Recovery of iPro T cells from freeze/thaw and culture in stage 5 medium. To be noted: pre-treated with UM729 at 1 μM in stage 4 medium; 7 days in stage 5 medium.
Where [6] appears, read: UM729 5.0 μM or higher, 21 days.
The mark [7] stands for this setting: UM729 0.25 μM to 1.0 μM in stage 4 media, 21 days.
Where [8] appears, read: UM729 0.25 μM to 1.0 μM, 21 days.
Where [9] appears, read: UM729 0.25 μM to 1.0 μM, 35 days (UM729 also in stage 5 cultures).

Regarding `COC(=O)c1ccc2c(c1)[nH]c1ncnc(NCCCN3CCCCC3)c12` [UM729, methyl 4-(3-piperidin-1-ylpropylamino)-9H-pyrimido[4,5-b]indole-7-carboxylate], the viability of cells result in data set [1] (21 days) is “maintain viability; also recorded: not to affect the viability”. Further, in data set [1] (35 days), the viability of cells entry is “not to affect the viability; also recorded: maintain viability”. In data set [1] (setting [6]), the “proliferation of total cells” value is “reduced or ceases; also recorded: ceased” and the “viability of total cells” value is given as “reduced or ceases; also recorded: comparably low”. Besides, the cytotoxic effects entry in data set [1] (UM729 at concentrations of 5 μM and above) is reported as “cytotoxic effects were observed”. Further, in data set [2] (setting [7]), the “differentiation into / yield of CD7+CD5+ iPro T cells (FIG. 4A)” value is “promotes differentiation into iProT cells; also recorded: increase the yield” and the “percentage of CD7+CD5+ iPro T cells (FIG. 4B)” value is reported as “enriches the percentage of iProT cells; also recorded: enrich the percentage”. In data set [2] (UM729 0.25 μM to 1.0 μM in stage 4 medium, 21 days), the “fraction of CD8+CD4+ double positive cells (further differentiation to DP T cells)” value is “decreases the fraction of CD8+CD4+ double positive cells; also recorded: inhibited further differentiation”. In data set [2] (setting [8]), the “lymphoid fraction of the cells” value is reported as “increases the lymphoid fraction” and the “myeloid fraction of the cells (myeloid cellular contamination)” value was “reduces the myeloid fraction; also recorded: reduce this cellular contamination in a dose dependent manner”. In data set [2] (setting [9]), the “differentiation into / percentage of CD7+CD5+ iPro T cells (FIG. 7)” value is given as “increasing; also recorded: promotes differentiation into iProT cells” and the “fraction / development of CD8+CD4+ double positive cells (FIG. 8)” value is reported as “inhibited in a dose dependent manner; also recorded: decreases the fraction of CD8+CD4+ double positive cells”. Besides, the “differentiation to CD4+CD8+ double positive T cells after removal of UM729 (FIG. 10)” value in the data set with iPro T cells [3] was “found to be removed; also recorded: will become CD4+CD8+ double positive”. In addition, the “expansion of iPro T cells (FIG. 9)” value in the data set on iPro T cells [4] is listed as “supported over 42 days; also recorded: greatly enhances the expansion of iProT cells”. In addition, in the data set on iPro T cells [5], the “cell proliferation after culture in stage 5 medium (FIG. 12B)” value is reported as “increased cell proliferation” and the “viability after culture in stage 5 medium (FIG. 12A)” value is given as “higher viability”.
